Counter-ions that a name gives are not always drawn.
What was measured:
[1] = hepatic disorder induced by D-galactosamine in SD rats (Example 2); format: in vivo, SD male rats; conditions: oral
Protocol: Using 7 week-old SD male rats, the effectiveness of beraprost by oral administration against the hepatic disorder induced by D-galactosamine was tested. As the test compound, the sodium salt of beraprost was used. The test compound was administered in a dose of 0.3 mg/kg per each time at one hour before and 6 hours after the administration of D-galactosamine. D-galactosamine was subcutaneously administered in a dose of 1 g/kg. Forty eight hours after the administration of D-galactosamine, the GOT and glutamic acid-pyruvic acid transaminase (hereinafter referred to as "GPT") levels in serum, and the content of triglyceride in the livers were measured.
As a control group, one group was treated in the same manner as described above except that sodium salt of beraprost was not administered.

rats = experiment: Acute Toxicity Test (Example 5); conditions: rat, in vivo
Protocol: (§1) Acute toxicity test was carried out using rats.
(§2) *Litchfield-Wilcoxon Method (see J. Pharmacol. Expl. Therap. Vol. 96, p.
(§3) The numbers in parentheses indicate 95% reliable limit.

[2] = Acute Toxicity Test (Example 5); parameters: species or system rats; conditions: rat, in vivo, 14 days, parentheses: 95% reliable limit, Litchfield-Wilcoxon Method
Protocol: as §1, §2, §3

[3] = increase in lipid peroxide level in the blood induced by carbon tetrachloride in SD rats (Example 3); format: in vivo, SD male rats; conditions: for Lipid Peroxides in serum / GPT level in serum / GOT level in serum: dose not given; for Lipid Peroxides in serum: control 7.10 ± 1.73, non-treated 3.40 ± 0.21; for GPT level in serum: control 3709 ± 406, non-treated 21 ± 2; for GOT level in serum: control 14689 ± 1577, non-treated 95 ± 5
Protocol: Using 7 week-old SD male rats, each group consisting of 6 rats, the effectiveness of beraprost by oral administration against the increase in the lipid peroxide level in the blood induced by carbon tetrachloride was tested. The sodium salt of beraprost was used as the test compound. 12.5% carbon tetrachloride solution in olive oil was intraperitoneally administered in a dose of 2 ml/kg to the rats which had been fasted for 24 hours. After the administration of the carbon tetrachloride solution, the rats were fasted for another 24 hours and then the levels of lipid peroxide, GOT and GPT in serum were measured. The test compound was administered one hour before (Test Group 1) or 6 hours after (Test Group 2) the administration of the carbon tetrachloride solution. As a control group, one group was treated in the same manner as described above except that the sodium salt of beraprost was not administered.

[4] = hepatic disorder induced by carbon tetrachloride in SD rats, serum GOT (Example 1); format: in vivo, Sprague-Dawley male rats; conditions: 0.3 mg/kg; for GOT level in serum: 24 h after
Protocol: Using 7 week-old Sprague-Dawley (hereinafter referred to as "SD") male rats, the effectiveness of beraprost against hepatic disorder induced by carbon tetrachloride was tested employing two administration routes, that is, oral and intraperitoneal administrations. Each group consisted of 6 rats. The test compound was the sodium salt of beraprost. The test compound was administered to the rats. which had been fasted for 24 hours, One hour after beraprost administration, 12.5% carbon tetrachloride solution in olive oil was administered in a dose of 2 ml/kg. The carbon tetrachloride solution was intraperitoneally administered to the rats to which the test compound was orally administered. The carbon tetrachloride solution was orally administered to the rats to which the test compound was intraperitoneally administered. After the administration of the carbon tetrachloride solution, the rats were fasted for 24 hours, and the glutamic acid-[…] transaminase (hereinafter referred to as "GOT") level in serum was measured. As a control group, one group was treated in the same manner as described above except that the sodium salt of beraprost was not administered. The results are shown in […]

[5] = disorder caused by liver ischemia-recirculation in SD rats (Example 4); format: in vivo, SD male rats; conditions: oral, 30 minutes before ischemia; for GPT level in serum: two hours after recirculation, control 624
Protocol: Using 8-10 week-old SD male rats, the effectiveness of beraprost by oral administration against the disorder caused by liver ischemia-recirculationwas tested. The sodium salt of beraprost was used as the test compound. The test compound was administered 30 minutes before the induction of liver ischemia. Liver ischemia was induced by ventrotomy under anesthesia and closing the hepatic artery in the outer left leaf and the portal vein with clips. One hour after the clipping, the clips were removed to reopen the vessels. Two hours after recirculation, the GPT level in serum was measured to evaluate the degree of disorder.
As a control group, one group was treated in the same manner as described above except that distilled water was administered in place of sodium salt of beraprost.

[6] = 0.3 mg/kg twice, vs control group
[7] = oral, one hour before or 6 hours after carbon tetrachloride
[8] = Test Group 1: oral, one hour before carbon tetrachloride, 24 h after
[9] = Test Group 2: oral, 6 hours after carbon tetrachloride, measured 24 h after carbon tetrachloride

CC#CCC(C)[C@H](O)/C=C/[C@@H]1[C@H]2c3cccc(CCCC(=O)O)c3O[C@H]2C[C@H]1O (relative stereo) [beraprost, (±)-(1R*,2R*, 3aS*,8bS*)-2,3,3a,8b-tetrahydro-2-hydroxy-1-[(E)-(3S*)-3-hydroxy-4methyl-1-ocetene-6-inyl]-1H-cyclopenta[b]benzofuran-5-butyric acid]
decrease in amount of triglycerides in the liver (in words) [1, 6]: significant decreases
decrease in serum GOT (in words) [1, 6]: significant decreases
decrease in serum GPT (in words) [1, 6]: significant decreases
pathological symptoms (rats): slight to medium congestion in lung, slight to medium bleeding in stomach glands and slight small intestine catarrh
side effects (rats): side effects are observed only at very high dose
LD50 at 336 h ([2]; iv, female): 13 mg/kg
LD50 at 336 h ([2]; iv, male): 18 mg/kg
LD50 at 336 h ([2]; po, female): 12 mg/kg
LD50 at 336 h ([2]; po, male): 15 mg/kg
LD50 at 336 h ([2]; sc, subcutaneous, female): 7 mg/kg
LD50 at 336 h ([2]; sc, subcutaneous, male): 13 mg/kg
decrease in GOT (in words) [3, 7]: significant decrease
decrease in GPT (in words) [3, 7]: significant decrease
decrease in lipid peroxide level in the blood (in words) [3, 7]: significant decrease

CC#CCC(C)[C@H](O)/C=C/[C@@H]1[C@H]2c3cccc(CCCC(=O)O)c3O[C@H]2C[C@H]1O (relative stereo) [sodium salt of beraprost]
Triglyceride content in the liver ([1]; 0.3 mg/kg one hour before and 6 hours after D-galactosamine, 48 h, control 42.4 ± 6.0, non-treated 14.1 ± 0.6): 12.4 ± 0.7 mg/g tissue
GPT level in serum ([1]; 0.3 mg/kg one hour before and 6 hours after D-galactosamine, 48 h, control 2552 ± 375, non-treated 79 ± 5): 1356 ± 187 unit/l
GOT level in serum ([1]; 0.3 mg/kg one hour before and 6 hours after D-galactosamine, 48 h, control 5641 ± 858, non-treated 154 ± 7): 3506 ± 377 unit/l
Lipid Peroxides in serum [3, 8]: 2.44 ± 0.34 µM
GPT level in serum [3, 8]: 1285 ± 344 unit/l
GOT level in serum [3, 8]: 4428 ± 1649 unit/l
Lipid Peroxides in serum [3, 9]: 2.82 ± 0.52 µM
GPT level in serum [3, 9]: 1713 ± 258 unit/l
GOT level in serum [3, 9]: 7672 ± 1834 unit/l
GOT level in serum ([4]; intraperitoneal, one hour before carbon tetrachloride (oral), control 11943 ± 1216): 1889 ± 506 unit/l
decrease in GOT (in words) ([4]; oral and intraperitoneal, vs control): significant decrease in GOT was observed
GOT level in serum ([4]; oral, one hour before carbon tetrachloride (intraperitoneal), control 15647 ± 1588): 3820 ± 642 unit/l
GPT level in serum ([5]; 0.03 mg/kg): 617 unit/l
GPT level in serum ([5]; 0.1 mg/kg): 540 unit/l
GPT level in serum ([5]; 0.3 mg/kg): 427 unit/l
decrease in GPT level in serum (in words) ([5]; 0.03-0.3 mg/kg): a decrease in GPT level in serum was observed

Source: patent US5475026A, “Agent for treating hepatic diseases” (Toray Industries, Inc., priority 1991, dated 1995)
